Target: T1, cholesteryl ester transfer protein (Homo sapiens, UniProt P11597)
T1 construct: As a source of cholesteryl ester transfer protein, plasma from healthy humans was used; from tissue; host or cells: plasma from healthy humans
T1 sequence (P11597 18-493): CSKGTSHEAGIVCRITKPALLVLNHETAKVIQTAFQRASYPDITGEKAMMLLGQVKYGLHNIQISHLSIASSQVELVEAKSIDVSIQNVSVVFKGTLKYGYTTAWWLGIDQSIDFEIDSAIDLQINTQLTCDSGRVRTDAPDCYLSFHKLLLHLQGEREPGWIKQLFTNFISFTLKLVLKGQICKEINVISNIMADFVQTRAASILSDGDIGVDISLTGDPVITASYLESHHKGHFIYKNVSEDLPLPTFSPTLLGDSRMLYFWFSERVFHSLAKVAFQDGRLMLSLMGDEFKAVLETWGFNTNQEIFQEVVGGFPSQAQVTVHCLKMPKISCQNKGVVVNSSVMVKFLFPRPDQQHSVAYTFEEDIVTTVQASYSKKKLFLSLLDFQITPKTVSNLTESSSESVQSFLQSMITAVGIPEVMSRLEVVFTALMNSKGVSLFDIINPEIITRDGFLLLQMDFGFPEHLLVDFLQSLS
Experiment: In vitro test for the ability to inhibit cholesteryl ester transfer
Type: biochemical
Settings: [3H]-cholesteryl oleate transfer from rHDL-agarose to LDL; human plasma as CETP source; 37° C.; 16-10000 nM, duplicate
Description: In Vitro Test for the Ability to Inhibit Cholesteryl Ester Transfer
1. Preparation of Cholesteryl Ester Donor
In order to prepare a cholesteryl ester donor to be used in the test, a radiolabeled recombinant HDL containing [^3H]-cholesteryl oleate (GE healthcare, TRK886, 3.5 μCi/mg of apoA-1) and apoA-1 was synthesized. Then, rHDL-agarose obtained by immobilizing the recombinant HDL with CNBr-activated Sepharose 4B resin (Amersham Biosciences, Sweden) was used in the test.
2. Cholesteryl Ester Transfer Test
As a source of cholesteryl ester transfer protein, plasma from healthy humans was used, and as cholesteryl ester receptor, LDL from healthy humans was used. Each of test compounds was added to be final concentrations of 16, 80, 400, 2000 and 10000 nM and tested in duplicate. In order to test cholesteryl ester transfer, 20 μl of plasma, 50 μl of LDL (0.25 mg/ml) and 50 μl of rHDL-agarose (0.25 mg/ml) were mixed with each other, and a solution of each test compound was added thereto and reacted thereto at 37° C. Then, the reaction solution was centrifuged at 4° C. for 3 minutes, thereby the reaction was stopped. 150 μl of the supernatant was transferred into a 96-well plate for radioactivity measurement, and the radioactivity thereof was measured with a beta-ray detector.
3. Statistical Processing
The ratio of [^3H]-cholesteryl oleate transferred from HDL to LDL was determined, and based on the determined ratio, the IC50 value of each compound was determined using GraphPad Prism 5.0.

Compound | IC50 [nM]
COc1ccc([N+](=O)[O-])cc1C1=C(CN2C(=O)O[C@H](c3cc(C(F)(F)F)cc(C(F)(F)F)c3)[C@@H]2C)CC(C(F)(F)F)CC1 (stereo partly drawn) [Compound 194, (4S,5R)-5-(3,5-bis(trifluoromethyl)phenyl)-3-((2-(2-methoxy-5-nitrophenyl)-5-(trifluoromethyl)cyclohex-1-enyl)methyl)-4-methyloxazolidin-2-one] | 100
COC(=O)CCc1ccc(OC)c(C2=C(CN3C(=O)O[C@H](c4cc(C(F)(F)F)cc(C(F)(F)F)c4)[C@@H]3C)CC(C)(C)CC2)c1 [Compound 272, methyl 3-(3-(2-(((4S,5R)-5-(3,5-bis(trifluoromethyl)phenyl)-4-methyl-2-oxooxazolidin-3-yl)methyl)-4,4-dimethylcyclohex-1-enyl)-4-methoxyphenyl)propanoate] | 222
COc1ccc(C2=NCCO2)cc1C1=C(CN2C(=O)O[C@H](c3cc(C(F)(F)F)cc(C(F)(F)F)c3)[C@@H]2C)CC(C)(C)CC1 [Compound 185, (4S,5R)-5-(3,5-bis(trifluoromethyl)phenyl)-3-((2-(5-(4,5-dihydrooxazol-2-yl)-2-methoxyphenyl)-5,5-dimethylcyclohex-1-enyl)methyl)-4-methyloxazolidin-2-one] | 180
COc1cc(F)c(C(C)C)cc1C1=C(CN2C(=O)O[C@H](c3cc(C(F)(F)F)cc(C(F)(F)F)c3)[C@@H]2C)CN(CC(F)(F)F)CC1 [Compound 268, (4S,5R)-5-(3,5-bis(trifluoromethyl)phenyl)-3-((4-(4-fluoro-5-isopropyl-2-methoxyphenyl)-1-(2,2,2-trifluoroethyl)-1,2,5,6-tetrahydropyridin-3-yl)methyl)-4-methyloxazolidin-2-one] | 46
COc1cc(F)c(C(=O)C2CC2)cc1C1=C(CN2C(=O)O[C@H](c3cc(C(F)(F)F)cc(C(F)(F)F)c3)[C@@H]2C)CC(C)(C)CC1 [Compound 192, (4S,5R)-5-(3,5-bis(trifluoromethyl)phenyl)-3-((2-(5-(cyclopropanecarbonyl)-4-fluoro-2-methoxyphenyl)-5,5-dimethylcyclohex-1-enyl)methyl)-4-methyloxazolidin-2-one] | 60
COc1ccc(NC(C)=O)cc1C1=C(CN2C(=O)O[C@H](c3cc(C(F)(F)F)cc(C(F)(F)F)c3)[C@@H]2C)CC(C)(C)CC1 [Compound 110, N-(3-(2-(((4S,5R)-5-(3,5-bis(trifluoromethyl)phenyl)-4-methyl-2-oxooxazolidin-3-yl)methyl)-4,4-dimethylcyclohex-1-enyl)-4-methoxyphenyl)acetamide] | 230
COc1ccc(CC2(C(=O)O)CCCC2)cc1C1=C(CN2C(=O)O[C@H](c3cc(C(F)(F)F)cc(C(F)(F)F)c3)[C@@H]2C)CC(C)(C)CC1 [Compound 324, 1-(3-(2-(((4S,5R)-5-(3,5-bis(trifluoromethyl)phenyl)-4-methyl-2-oxooxazolidin-3-yl)methyl)-4,4-dimethylcyclohex-1-enyl)-4-methoxybenzyl)cyclopentanecarboxylic acid] | 97
COc1cc(F)c(N(C)C(C)=O)cc1C1=C(CN2C(=O)O[C@H](c3cc(C(F)(F)F)cc(C(F)(F)F)c3)[C@@H]2C)CC(C)(C)CC1 [Compound 215, N-(5-(2-(((4S,5R)-5-(3,5-bis(trifluoromethyl)phenyl)-4-methyl-2-oxooxazolidin-3-yl)methyl)-4,4-dimethylcyclohex-1-enyl)-2-fluoro-4-methoxyphenyl)-N-methylacetamide] | 20
COc1cc(F)c(C(C)C)cc1C1=C(CN2C(=O)O[C@H](c3cc(C(F)(F)F)cc(C(F)(F)F)c3)[C@@H]2C)CC(C(C)(C)C)CC1 (stereo partly drawn) [Compound 101, (4S,5R)-5-(3,5-bis(trifluoromethyl)phenyl)-3-((5-tert-butyl-2-(4-fluoro-5-isopropyl-2-methoxyphenyl)cyclohex-1-enyl)methyl)-4-methyloxazolidin-2-one] | 70
COc1ccccc1C1=C(CN2C(=O)O[C@H](c3cc(C(F)(F)F)cc(C(F)(F)F)c3)[C@@H]2C)CC(C)(C)CC1 [Compound 18, (4S,5R)-5-(3,5-bis(trifluoromethyl)phenyl)-3-((2-(2-methoxyphenyl)-5,5-dimethylcyclohex-1-enyl)methyl)-4-methyloxazolidin-2-one] | 1360
COc1ccc(N(C)C(=O)C(C)(C)O)cc1C1=C(CN2C(=O)O[C@H](c3cc(C(F)(F)F)cc(C(F)(F)F)c3)[C@@H]2C)CC(C)(C)CC1 [Compound 244, N-(3-(2-(((4S,5R)-5-(3,5-bis(trifluoromethyl)phenyl)-4-methyl-2-oxooxazolidin-3-yl)methyl)-4,4-dimethylcyclohex-1-enyl)-4-methoxyphenyl)-2-hydroxy-N,2-dimethylpropanamide] | 20
COc1ccc(C(F)(F)F)cc1C1=C(CN2C(=O)O[C@H](c3cc(C(F)(F)F)cc(C(F)(F)F)c3)[C@@H]2C)CC(C(F)(F)F)CC1 (stereo partly drawn) [Compound 193, (4S,5R)-5-(3,5-bis(trifluoromethyl)phenyl)-3-((2-(2-methoxy-5-(trifluoromethyl)phenyl)-5-(trifluoromethyl)cyclohex-1-enyl)methyl)-4-methyloxazolidin-2-one] | 40

Continued by falling IC50, values first:

IC50 [nM] | Compound
20 | CCc1cc(OC)c(C2=C(CN3C(=O)O[C@H](c4cc(C(F)(F)F)cc(C(F)(F)F)c4)[C@@H]3C)CC(C)(C)CC2)cc1N(C)C(C)=O [Compound 234, N-(5-(2-(((4S,5R)-5-(3,5-bis(trifluoromethyl)phenyl)-4-methyl-2-oxooxazolidin-3-yl)methyl)-4,4-dimethylcyclohex-1-enyl)-2-ethyl-4-methoxyphenyl)-N-methylacetamide]
20 | COc1cc(F)c(C(C)=O)cc1C1=C(CN2C(=O)O[C@H](c3cc(C(F)(F)F)cc(C(F)(F)F)c3)[C@@H]2C)CC(C)(C)CC1 [Compound 184, (4S,5R)-3-((2-(5-acetyl-4-fluoro-2-methoxyphenyl)-5,5-dimethylcyclohex-1-enyl)methyl)-5-(3,5-bis(trifluoromethyl)phenyl)-4-methyloxazolidin-2-one]
20 | COc1ccc(CC2(C(=O)O)CCC2)cc1C1=C(CN2C(=O)O[C@H](c3cc(C(F)(F)F)cc(C(F)(F)F)c3)[C@@H]2C)CC(C)(C)CC1 [Compound 313, 1-(3-(2-(((4S,5R)-5-(3,5-bis(trifluoromethyl)phenyl)-4-methyl-2-oxooxazolidin-3-yl)methyl)-4,4-dimethylcyclohex-1-enyl)-4-methoxybenzyl)cyclobutanecarboxylic acid]
10 | COc1cc(C(F)(F)F)c(N(C)S(=O)(=O)C(F)(F)F)cc1C1=C(CN2C(=O)O[C@H](c3cc(C(F)(F)F)cc(C(F)(F)F)c3)[C@@H]2C)CC(C)(C)CC1 [Compound 209, N-(5-(2-(((4S,5R)-5-(3,5-bis(trifluoromethyl)phenyl)-4-methyl-2-oxooxazolidin-3-yl)methyl)-4,4-dimethylcyclohex-1-enyl)-4-methoxy-2-(trifluoromethyl)phenyl)trifluoro-N-methylmethanesulfonamide]
10 | COc1ccc(C2(C(N)=O)CC2)cc1C1=C(CN2C(=O)O[C@H](c3cc(C(F)(F)F)cc(C(F)(F)F)c3)[C@@H]2C)CC(C)(C)CC1 [Compound 190, 1-(3-(2-(((4S,5R)-5-(3,5-bis(trifluoromethyl)phenyl)-4-methyl-2-oxooxazolidin-3-yl)methyl)-4,4-dimethylcyclohex-1-enyl)-4-methoxyphenyl)cyclopropanecarboxamide]
8 | COc1ccc(CC(C)(C)c2nn[nH]n2)cc1C1=C(CN2C(=O)O[C@H](c3cc(C(F)(F)F)cc(C(F)(F)F)c3)[C@@H]2C)CC(C)(C)CC1 [Compound 340, (4S,5R)-5-(3,5-bis(trifluoromethyl)phenyl)-3-((2-(2-methoxy-5-(2-methyl-2-(2H-tetrazol-5-yl)propyl)phenyl)-5,5-dimethylcyclohex-1-enyl)methyl)-4-methyloxazolidin-2-one]
1 | COc1cc(C)c(N(C)C(C)=O)cc1C1=C(CN2C(=O)O[C@H](c3cc(C(F)(F)F)cc(C(F)(F)F)c3)[C@@H]2C)CC(C)(C)CC1 [Compound 249, N-(5-(2-(((4S,5R)-5-(3,5-bis(trifluoromethyl)phenyl)-4-methyl-2-oxooxazolidin-3-yl)methyl)-4,4-dimethylcyclohex-1-enyl)-4-methoxy-2-methylphenyl)-N-methylacetamide]

— US9371294B2, “Cycloalkenyl aryl derivatives for CETP inhibitor” (CHONG KUN DANG PHARMACEUTICAL CORP., priority 2011, dated 2016)
